Source: ChEMBL document CHEMBL3507680, “University of Dundee, Gates Library screen for HepG2 cell viability”

Experiment: Human HepG2 cell viability assay in 384 well format
Assay type: toxicity, cell-based
Set-up: dose 125 nL, time 70.5 hour; cytotoxicity at 70.5 h: concentration not given beside the values
Settings: HepG2 cells, read-out: Inhibition

Row | SMILES | cytotoxicity at 70.5 h
1 | O=c1c(NCCOCCO)c(N2CCN(c3ccccc3)CC2)c1=O | -2.63%
2 | COc1cn(-c2ccccc2)nc1C(=O)NCCCN1CCCC(C)C1 (stereo unspecified) | -11.2%
3 | COc1ccnc(NCc2ccccc2Cn2cccn2)n1 | -1.62%
4 | CCc1ccc(OCC(=O)N2CCN(CC)CC2)cc1 | -6.61%
5 | COc1ccc(C(=O)N2CCCS2(=O)=O)cc1OC | -1.63%
6 | N#Cc1ccc(CN2C[C@@H]3OCC(=O)N(CC(N)=O)[C@@H]3C2)cc1 | -3.35%
7 | O=C(N[C@@H]1CNCCC[C@H]1O)c1ccc(OCc2ccccc2)cc1 | -2.25%
8 | OC(CN1CCOCC1)c1ccc(OC(F)(F)F)cc1 (stereo unspecified) | -9.34%
9 | CC(=O)N1[C@H](CN(C)C)C[C@@H]2CN(C(=O)c3occc3C)CC[C@@H]21 | -3.81%
10 | CNC(=O)CCCNCc1c(C)nn(CC(C)C)c1N(C)C | 0.675%
11 | CN(C)C(=O)c1nc(CN2C(=O)OC[C@@H]2c2ccccc2)no1 | 15.9%
12 | CCc1nc(C(=O)N2CCN(C)c3ccccc32)c[nH]1 | -9.6%
13 | COc1cc(C(C)=O)ccc1SCC(=O)Nc1cc(C)n[nH]1 | -11.8%
14 | CN(C)c1ccc(C(=O)NCc2csc(Br)c2)cn1 | -11%
15 | Cc1cc(CN(C)C2CCCN(Cc3noc(C4CC4)n3)C2)on1 (stereo unspecified) | -9.71%
16 | COc1ccc(C(=O)N2CCOC(Cc3cccc(C(F)(F)F)c3)C2)o1 (stereo unspecified) | -7.8%
17 | CN(C)C(=O)Cc1ccc(-c2cccc3c2CCNC3)cc1 | -21.8%
18 | COc1c(Cl)cc(C(=O)NCc2n[nH]c(C)n2)cc1Cl | 2.06%
19 | CS(=O)(=O)Cc1ccc(C(=O)N2CCCC(n3cncn3)C2)o1 (stereo unspecified) | 1.66%
20 | COCC1CCN(C(=O)c2cn(Cc3cccc(C(F)(F)F)c3)nn2)C1 (stereo unspecified) | -12.5%
21 | Cc1noc([C@H]2C[C@H]3OCC[C@H]3N(S(=O)(=O)C3CC3)C2)n1 | -11.6%
22 | COCCN1C[C@@H]2CN(c3cc(OC)ncn3)CCC[C@]2(C(=O)O)C1 | 9.96%
23 | CC(C)COC(C)C(=O)NCc1ccc(N(C)C)cc1 (stereo unspecified) | 7.68%

Row | SMILES | cytotoxicity at 70.5 h
24 | COCCc1noc(CNC2CCc3nc(C(C)C)nn3C2)n1 (stereo unspecified) | -5%
25 | CCc1nc(CN2CCN(c3ncnc4cc(F)ccc34)CC2)no1 | 24.8%
26 | CC(C)c1ccc(OCCC(=O)N(C)CC(=O)N(C)C)cc1 | 16%
27 | O=C(CN1CCCS1(=O)=O)Nc1ccc(OC2CCCC2)c(Cl)c1 | -0.366%
28 | CCc1cc2cc(OC)c(OC)cc2nc1SCCN1CCCCC1 | 1.15%
29 | CC(C)c1nnc2ccc(N3CCC(C(=O)Nc4nccs4)CC3)nn12 | 10.7%
30 | CCO[C@@H]1CC[C@H]2[C@H]1OCCN2C(=O)C1CCOCC1 | -2.08%
31 | Cc1nn(C)c2nc(NC3CCNCC3)sc12 | 1.8%
32 | CC(c1ccc2c(c1)OCO2)N1Cc2nc(N(C)C)ncc2C1=O (stereo unspecified) | -0.989%
33 | CCNC(=O)c1c2c(N3CCN(C)CC3)ncnc2n2ccccc12 | 2.84%
34 | CCCN1CCN(C(=O)c2cccnc2)CC1 | -14.6%
35 | O=C(c1ccccc1-c1ccccc1)N1C[C@@H]2CNC[C@]2(C(=O)O)C1 | 1.22%
36 | CCO[C@@H]1CO[C@@]2(CCCN(S(=O)(=O)c3ccccc3)C2)C1 | -8.47%
37 | CC(C)(C)C(=O)NCC(=O)Nc1cccnc1 | -6.42%
38 | O=C(c1ccc(F)cc1)N1CCN2C[C@H](Oc3cccnc3)C[C@H]2C1 | 0.416%
39 | CS(=O)(=O)Cc1ccc(CNC(=O)c2cccnc2O)cc1 | 9.83%
40 | CCOCCN1CCN(CCc2nc3ccccc3c(=O)[nH]2)CC1 | 1.75%
41 | Cc1cc(=O)n(C)cc1NC(=O)Cc1cc(F)ccc1F | 2.11%
42 | COc1nn(C)c2c1CCCN(C(=O)c1cccn1C)C2 | -41.9%
43 | CCc1cc(NCc2cccnc2N2CCCCC2)n2ncnc2n1 | 0.666%
44 | COc1ccc(Cc2ncc3c(n2)CN(C(=O)C2COCCO2)C3)cc1 (stereo unspecified) | -3.32%
45 | COCCCn1ccc(NC2CCSCC2)n1 | -8.74%
46 | Cc1ccccc1CC(=O)N[C@@H]1CCC[C@@H](N2CCNC(=O)C2)[C@@H]1O | -6.12%

Row | SMILES | cytotoxicity at 70.5 h
47 | CC(C)CCn1cc(C(=O)NC2CCS(=O)(=O)C2)c2ccccc2c1=O (stereo unspecified) | -12.4%
48 | CO[C@@H]1CCN(Cc2cccs2)[C@@H]2CN(Cc3ccncc3)C[C@@H]21 | -3.45%
49 | Cc1cc(C)c2nc(CNC3CCCNC3=O)cc(O)c2c1 (stereo unspecified) | -6.5%
50 | COCc1noc(-c2cc(Cl)c3c(c2)OCO3)n1 | -19.3%
51 | Cc1ccc2c(c1)[C@@H](CC(=O)N1CCN(C)CC1)CCO2 | 3.15%
52 | CCn1c(C(=O)N2CCN(CC[S+](C)[O-])CC2)cc2ccccc21 (stereo unspecified) | 0.944%
53 | O=C1COC2(CCN(S(=O)(=O)C3CC3)CC2)CN1c1cccnc1 | 40.1%
54 | O=C(c1ccco1)N1CCO[C@@H]2CN(c3ccccn3)CC[C@@H]2C1 | -4.86%
55 | N#Cc1cc(S(N)(=O)=O)ccc1NC1CCc2ccc(F)cc21 (stereo unspecified) | 7.54%
56 | Cc1nc(C2CCCN(C(=O)CO)C2)cc(N2CCOCC2)n1 (stereo unspecified) | -4.97%
57 | Cc1nccn1C1CCCN(C(=O)c2cc(O)nc3ccccc23)C1 (stereo unspecified) | 12.3%
58 | NC(=O)CN(Cc1ncc(-c2ccc(Cl)cc2)o1)C1CCCC1 | -7.75%
59 | CC(C)c1ncncc1C(=O)N1CCN(Cc2ccccn2)CC1 | -7.1%
60 | CCOCC(O)CN1CCN(C(=O)C2CC2)CC1 (stereo unspecified) | -13.7%
61 | c1cc(-c2cnc(NC3CC3)nc2[C@@H]2CCCO2)ccn1 | -8.62%
62 | CCn1cnnc1CNC(=O)N1CCN(c2cccs2)CC1 | 25.1%
63 | CC(C)n1ccc2c(NC(=O)c3n[nH]c4c3CCC4)cccc21 | 7.25%
64 | COc1ccc(CN2C[C@H](N3CCCC3=O)[C@@H]3OCCC[C@@H]32)cc1 | -7%
65 | CS(=O)(=O)NCc1ccc2c(c1)CCC2 | -7.69%
66 | CCN(CC1CCOC1)C(=O)c1cnc2onc(C)c2c1 (stereo unspecified) | -8.61%
67 | COc1ccc(CC(=O)N2CCC[C@@H](N)[C@@H]2c2ccccc2F)cc1 | -0.222%
68 | CC(C)SCC(=O)N1CCc2c(nc(N(C)C)nc2N(C)C)C1 | -9.5%
69 | CC/N=c1\nc(NCC)nc2n1C(O)(Nc1cc(C)ccc1C)CS2 (stereo unspecified) | -10.1%

Row | SMILES | cytotoxicity at 70.5 h
70 | Cc1c(C2CC(=O)Nc3c2cnn3C(C)C)cnn1C (stereo unspecified) | -10.4%
71 | O=c1c(NCCc2ccc(O)cc2)c(NCc2ccncc2)c1=O | -0.102%
72 | c1ccc(-n2cc(CNCC3CCCN3c3cccnn3)nn2)cc1 (stereo unspecified) | -1.58%
73 | CSCC(=O)NS(=O)(=O)c1ccc(C#N)c(C(F)(F)F)c1 | -8.4%
74 | CC(=O)c1cc(CC(=O)N2CCN(CCOc3ccccc3)CC2)cs1 | -1.31%
75 | COc1ccc(CN(C)C(=O)CCC(=O)c2cccs2)c(OC)c1OC | -3.38%
76 | CC(C)OC(C)c1nnc(SCC(=O)O)n1-c1ccc(F)cc1F (stereo unspecified) | -6.19%
77 | CN1[C@H](CO)C[C@H](CNCc2ccc(CO)o2)[C@@H]1c1ccccc1F | -4.51%
78 | Cc1ccc(C)c(C(=O)N2CCC3(CCC(=O)N(CC(N)=O)C3)CC2)c1 | 29.9%
79 | c1cnc(C2CCCN(Cc3ccsc3)C2)cn1 (stereo unspecified) | -6.09%
80 | O=C(c1ccno1)N1CCn2cc(CN3CCCCC3)nc2C1 | -2.37%
81 | Cc1nn(C)c2nc(N3CCCCC3c3ccc(F)cc3)sc12 (stereo unspecified) | 0.992%
82 | Cc1ccc(S(=O)(=O)N2CCCC(c3n[nH]cc3C(=O)N(C)C)C2)cc1 (stereo unspecified) | 9.91%
83 | Fc1cnc(N2CCN3C[C@H](Oc4cccnc4)C[C@H]3C2)nc1 | -3.94%
84 | CCCN1CCN(C(=O)c2ccc3ccccc3n2)[C@H]2CS(=O)(=O)C[C@H]21 | 13.2%
85 | CC(=O)N1CCCN(c2nccc(-c3cn(C)nc3C)n2)CC1 | -2.77%
86 | CCOC(=O)CN1C(=O)CN(S(C)(=O)=O)CCC(OC)c2ccccc21 (stereo unspecified) | -8.31%
87 | O=C(NCc1ccc2c(c1)OCO2)c1ccc(N2CCCCC2)nn1 | 12.8%
88 | Cc1nc(C2CCN(C(=O)c3cccnc3)CC2)c2sccn12 | 0.00673%
89 | COc1ccc(S(=O)(=O)NC(=O)COC2CCCC2)cc1 | -5.57%
90 | CC1CCN(C(=O)c2cn(-c3cc(N4CCOCC4)ncn3)cn2)CC1 | -14%
91 | O=C(Nc1cccnc1)[C@H]1C[C@H]2OCC[C@H]2N(C(=O)c2ccsc2)C1 | -15.4%
92 | O=C(Nc1cnc(N2CCOCC2)nc1)c1ccc(C(F)(F)F)cc1 | 6.8%

Row | SMILES | cytotoxicity at 70.5 h
93 | O=C([C@@H]1CCCO1)N1CCN(Cc2ccncc2)c2ncccc2C1 | -0.675%
94 | O=C(Cc1ccccc1)N1CCC2(CC1)COCCN2CC1CC1 | -9.82%
95 | COc1ccc2nc(NC(=O)c3c(C(=O)O)cnn3C)sc2c1 | -8.88%
96 | Cc1ccc2c(c1)c(C)cc(=O)n2CCCN | -4.61%
97 | O=C(Cc1cccs1)N1Cc2nc(CN3CCCC3)oc2C1 | 13%
98 | CN1CCCC(Cc2nccnc2Cl)CC1 (stereo unspecified) | -3.4%
99 | CCC1CN(C)c2ccccc2CN1C(=O)Nc1cccc(F)c1 (stereo unspecified) | -9.77%
100 | Cc1occc1C(=O)N1CCC(C(O)c2ccc(Cl)cc2)CC1 (stereo unspecified) | 5.5%
101 | Cn1nc(C(=O)N2CCSCC2)cc1NC(=O)c1ccco1 | -5.7%
102 | O=C(NCCN1CCOCC1)c1ccn(-c2ccc3ccccn23)n1 | -1.69%
103 | Cc1nc(C)n(CC2CCCN(CC(=O)NC3CCOCC3)C2)n1 (stereo unspecified) | 3.14%
104 | Cc1cnn(CCNCc2ccc(S(C)(=O)=O)cc2)c1 | -4.97%
105 | COc1cccc(-c2noc3c2CN(c2nc(C)ncc2C)CC3)c1 | -9.61%
106 | Cc1ccc(F)cc1NS(=O)(=O)c1cc2c(c(C(=O)O)c1)OCCO2 | -5.92%
107 | O=C(c1ccccc1C(F)(F)F)N1C[C@@H](CN2CCOCC2)[C@@H](CO)C1 | -6.68%
108 | Cc1ccccc1C(=O)N1C[C@@H]2CCN(c3cccnc3)C[C@@H]2C1 | -4.88%
109 | COCCS(=O)(=O)Nc1cc(Cl)ccn1 | 14.3%
110 | Cc1cnn(CC(C)NCc2nc(-c3cccs3)no2)c1 (stereo unspecified) | -7.53%
111 | CNC(=O)N1CC[C@H]2N(C)CC[C@@]2(C(=O)N2CCOCC2)CC1 | -4.42%
